Laboratory results: patent US20090087841A1, “METHODS AND COMPOSITIONS FOR D[…] HIV-1 TO PROTEASE INHIBITORS” (Monogram Biosciences, Inc., priority 2005, published 2009)

Tested on: HIV-1 viral population of patient sample 848
Test: Resistance test vector phenotypic drug susceptibility assay of patient sample 848
Assay type: cell-based
Settings: mixed viral population in sample 848, FIG. 3
Source text: Patient-derived segment(s) corresponding to the HIV protease and reverse transcriptase coding regions were amplified by the reverse transcription-polymerase chain reaction method (RT-PCR) using viral RNA isolated from viral particles present in the plasma or serum of HIV-infected individuals as follows. Viral RNA was isolated from the plasma or serum using oligo-dT magnetic beads (Dynal Biotech, Oslo, Norway), followed by washing and elution of viral RNA. The RT-PCR protocol was divided into two steps. A retroviral reverse transcriptase (e.g. Moloney MuLV reverse transcriptase (Roche Molecular Systems, Inc., Branchburg, N.J.; Invitrogen, Carlsbad, Calif.), or avian myeloblastosis virus (AMV) reverse transcriptase (Roche Molecular Systems, Inc., Branchburg, N.J.), or) was used to copy viral RNA into cDNA. The cDNA was then amplified using a thermostable DNA polymerase (e.g. Taq (Roche Molecular Systems, Inc., Branchburg, N.J.), Tth (Roche Molecular Systems, Inc., Branchburg, N.J.), PRIMEZYME™ (isolated from Thermus brockianus, Biometra, Gottingen, Germany)) or a combination of thermostable polymerases as described for the performance of “long PCR” Barnes, W. M., 1994, Proc. Natl. Acad. Sci, USA 91, 2216-20) (e.g. Expand High Fidelity PCR System (Taq+Pwo), (Boehringer Mannheim. Indianapolis, Ind.); GENEAMP XL™ PCR kit (Tth+Vent), (Roche Molecular Systems, Inc., Branchburg, N.J.); or ADVANTAGE II®, Clontech, Palo Alto, Calif.)
Resistance test vectors incorporating the “test” patient-derived segments were constructed as described in U.S. Pat. No. 5,837,464 using an amplified DNA product of 1.5 kB prepared by RT-PCR using viral RNA as a template and oligonucleotides PDS Apa, PDS Age, PDS PCR6, Apa-gen, Apa-c, Apa-f, Age-gen, Age-a, RT-ad, RT-b, RT-c, RT-f, and/or RT-g as primers, followed by digestion with ApaI and AgeI or the isoschizomer PinA1. To ensure that the plasmid DNA corresponding to the resultant fitness test vector comprises a representative sample of the HIV viral quasi-species present in the serum of a given patient, many (>250) independent E. coli transformants obtained in the construction of a given fitness test vector are pooled and used for the preparation of plasmid DNA.
A packaging expression vector encoding an amphotrophic MuLV 4070A env gene product enables production in a resistance test vector host cell of resistance test vector viral particles which can efficiently infect human target cells. Resistance test vectors encoding all HIV genes with the exception of env were used to transfect a packaging host cell (once transfected the host cell is referred to as a fitness test vector host cell). The packaging expression vector which encodes the amphotrophic MuLV 4070A env gene product is used with the resistance test vector to enable production in the resistance test vector host cell of infectious pseudotyped resistance test vector viral particles.
Drug resistance tests performed with resistance test vectors were carried out using packaging host and target host cells consisting of the human embryonic kidney cell line 293. See U.S. Pat. No. 5,837,464.
Resistance tests were carried out with resistance test vectors using two host cell types. Resistance test vector viral particles were produced by a first host cell (the resistance test vector host cell) that was prepared by transfecting a packaging host cell with the resistance test vector and the packaging expression vector. The resistance test vector viral particles were then used to infect a second host cell (the target host cell) in which the expression of the indicator gene is measured.
The resistance test vectors containing a functional luciferase gene cassette were constructed as described above and host cells were transfected with the resistance test vector DNA. […]

| Structure (SMILES) | phenotypic resistance score of the viral population |
| --- | --- |
| CC(C)(C)NC(=O)[C@@H]1C[C@@H]2CCCC[C@@H]2CN1C[C@@H](O)[C@H](Cc1ccccc1)NC(=O)[C@H](CC(N)=O)NC(=O)c1ccc2ccccc2n1 [SQV, saquinavir] | resistant |
| CC(C)CN(C[C@@H](O)[C@H](Cc1ccccc1)NC(=O)O[C@H]1CCOC1)S(=O)(=O)c1ccc(N)cc1 [AMP, amprenavir] | resistant |
| Cc1c(O)cccc1C(=O)N[C@@H](CSc1ccccc1)[C@H](O)CN1C[C@H]2CCCC[C@H]2C[C@H]1C(=O)NC(C)(C)C [NFV, nelfinavir] | resistant |
| CC(C)c1nc(CN(C)C(=O)N[C@H](C(=O)N[C@@H](Cc2ccccc2)C[C@H](O)[C@H](Cc2ccccc2)NC(=O)OCc2cncs2)C(C)C)cs1 [RTV, ritonavir] | resistant |
| Cc1cccc(C)c1OCC(=O)N[C@@H](Cc1ccccc1)[C@@H](O)C[C@H](Cc1ccccc1)NC(=O)[C@H](C(C)C)N1CCCNC1=O [LPV, lopinavir] | resistant |
| CC(C)(C)NC(=O)[C@@H]1CN(Cc2cccnc2)CCN1C[C@@H](O)C[C@@H](Cc1ccccc1)C(=O)N[C@H]1c2ccccc2C[C@H]1O [IDV, indinavir] | resistant |
